SMILES strings stand for the structures.

Data on 35 compounds can be found in patent US6900219B2, “ABCA-1 elevating compounds” (CV Therapeutics, Inc., priority 2002, dated 2005).

For the assay, the system named is ABCA-1 gene. In words: compounds tested and found to elevate cellular expression of the ABCA-1 gene (Examples 1-6; test not named). It counts as cell-based. The procedure:
Activity testing is conducted as described in those patents and patent applications referenced above, and in the Examples below, and by methods apparent to one skilled in the art.
With `O=C(Nc1ncc(-c2ccccc2)s1)C1CC1` [cyclopropyl-N-(5-phenyl(1,3-thiazol-2-yl))carboxamide], the “cellular expression of the ABCA-1 gene” value is listed as “elevate cellular expression of the ABCA-1 gene”.

For the compound `O=C(Nc1ncc(-c2ccc(F)cc2)s1)C1CC1` [cyclopropyl-N-[5-(4-fluorophenyl)(1,3-thiazol-2-yl)]carboxamide], the “cellular expression of the ABCA-1 gene” value was “elevate cellular expression of the ABCA-1 gene”. The result for `CCOC(=O)C1CCCCN1C(=O)c1ccc2c(c1)OCO2` (centres unmarked) [ethyl 1-(2H-benzo[d]1,3-dioxolen-5-ylcarbonyl)piperidine-2-carboxylate] reads “elevate cellular expression of the ABCA-1 gene”.

For the compound `CCOC(=O)C1=C(NCCc2ccccc2)CCN(C(=O)c2ccc(Cl)cc2Cl)C1` [ethyl 1-[(2,4-dichlorophenyl)carbonyl]-4-[(2-phenylethyl)amino]-1,2,5,6-tetrahydropyridine-3-carboxylate], the “cellular expression of the ABCA-1 gene” value is recorded as “elevate cellular expression of the ABCA-1 gene”. Under `CCOC(=O)C1=C(NCCc2ccccc2)CCN(C(=O)c2ccc([N+](=O)[O-])cc2Cl)C1` [ethyl 1-[(2-chloro-4-nitrophenyl)carbonyl]-4-[(2-phenylethyl)amino]-1,2,5,6-tetrahydropyridine-3-carboxylate] stands “elevate cellular expression of the ABCA-1 gene”; under `CCOC(=O)C1=C(NCCc2ccccc2)CCN(C(=O)c2ccccc2C)C1` [ethyl 1-[(2-methylphenyl)carbonyl]-4-[(2-phenylethyl)amino]-1,2,5,6-tetrahydropyridine-3-carboxylate], “elevate cellular expression of the ABCA-1 gene”; under `CCOC(=O)C1=C(NCCc2ccccc2)CCN(C(=O)c2ccc(Br)cc2)C1` [ethyl 1-[(4-bromophenyl)carbonyl]-4-[(2-phenylethyl)amino]-1,2,5,6-tetrahydropyridine-3-carboxylate], “elevate cellular expression of the ABCA-1 gene”. For `CCOC(=O)C1=C(NCCc2ccccc2)CCN(C(=O)c2ccc(CC)cc2)C1` [ethyl 1-[(4-ethylphenyl)carbonyl]-4-[(2-phenylethyl)amino]-1,2,5,6-tetrahydropyridine-3-carboxylate], the “cellular expression of the ABCA-1 gene” value is “elevate cellular expression of the ABCA-1 gene”. Under `CCOC(=O)C1=C(NCCc2ccccc2)CCN(C(=O)c2ccc(F)cc2)C1` [ethyl 1-[(4-fluorophenyl)carbonyl]-4-[(2-phenylethyl)amino]-1,2,5,6-tetrahydropyridine-3-carboxylate] stands “elevate cellular expression of the ABCA-1 gene”; under `CCOC(=O)C1=C(NCCc2ccccc2)CCN(C(=O)c2ccc(OC)cc2)C1` [ethyl 1-[(4-methoxyphenyl)carbonyl]-4-[(2-phenylethyl)amino]-1,2,5,6-tetrahydropyridine-3-carboxylate], “elevate cellular expression of the ABCA-1 gene”; under `CCOC(=O)C1=C(NCCc2ccccc2)CCN(C(=O)c2ccc(C)cc2)C1` [ethyl 1-[(4-methylphenyl)carbonyl]-4-[(2-phenylethyl)amino]-1,2,5,6-tetrahydropyridine-3-carboxylate], “elevate cellular expression of the ABCA-1 gene”. The result for `CCOC(=O)C1=C(NCCc2ccccc2)CCN(C(=O)c2ccc([N+](=O)[O-])cc2)C1` [ethyl 1-[(4-nitrophenyl)carbonyl]-4-[(2-phenylethyl)amino]-1,2,5,6-tetrahydropyridine-3-carboxylate] reads “elevate cellular expression of the ABCA-1 gene”; that for `CCOC(=O)C1=C(NCCc2ccccc2)CCN(C(=O)c2ccc(C(C)(C)C)cc2)C1` [ethyl 1-[(4-t-butylphenyl)carbonyl]-4-[(2-phenylethyl)amino]-1,2,5,6-tetrahydropyridine-3-carboxylate], “elevate cellular expression of the ABCA-1 gene”; that for `CCOC(=O)Cc1csc(NC(=O)Nc2ccccc2F)n1` [ethyl 2-(2-{[(2-fluorophenyl)amino]carbonylamino}-1,3-thiazol-4-yl)acetate], “elevate cellular expression of the ABCA-1 gene”.

As to `CCOC(=O)CNC(=O)N(CCN(C)C)C(C)c1nc2ccccc2c(=O)n1-c1ccc2ccccc2c1` (centres unmarked) [ethyl 2-({N-[2-(dimethylamino)ethyl]-N-[(3-(2-naphthyl)-4-oxo(3-hydroquinazolin-2-yl))ethyl]carbamoyl}amino)acetate], the “cellular expression of the ABCA-1 gene” value is “elevate cellular expression of the ABCA-1 gene”.

In the case of `CCOC(=O)CNC(=O)N(CCOC)C(C)c1nc2ccccc2c(=O)n1-c1ccc(Br)cc1` (centres unmarked) [ethyl 2-[(N-{[3-(4-bromophenyl)-4-oxo(3-hydroquinazolin-2-yl)]ethyl}-N-(2-methoxyethyl)carbamoyl)amino]acetate], the “cellular expression of the ABCA-1 gene” value is reported as “elevate cellular expression of the ABCA-1 gene”. Under `CCOC(=O)CCN(CCc1ccccc1)C(=O)c1ccc2c(c1)OCO2` [ethyl 3-[2H-benzo[d]1,3-dioxolen-5-yl-N-(2-phenylethyl)carbonylamino]propanoate] stands “elevate cellular expression of the ABCA-1 gene”. Under `CCOC(=O)CCN(C(=O)CCc1ccccc1)c1ccc(Br)cc1` [ethyl 3-[(4-bromophenyl)-N-(2-phenylethyl)carbonylamino]propanoate] stands “elevate cellular expression of the ABCA-1 gene”; under `CCOC(=O)CCN(C(=O)CCc1ccccc1)c1ccc(CC)cc1` [ethyl 3-[(4-ethylphenyl)-N-(2-phenylethyl)carbonylamino]propanoate], “elevate cellular expression of the ABCA-1 gene”. As to `CCOC(=O)C1=C(NCCc2ccccc2)CCN(C(=O)c2ccc(-c3ccccc3)cc2)C1` [ethyl 4-[(2-phenylethyl)amino]-1-[(4-phenylphenyl)carbonyl]-1,2,5,6-tetrahydropyridine-3-carboxylate], the “cellular expression of the ABCA-1 gene” value was “elevate cellular expression of the ABCA-1 gene”.

Consider `CCOC(=O)c1ccc(NC(=O)Nc2ccccc2)cc1` [ethyl 4-[(phenylamino)carbonylamino]benzoate], for which the “cellular expression of the ABCA-1 gene” value is listed as “elevate cellular expression of the ABCA-1 gene”. Under `CCOC(=O)CC(=O)CSc1nnc(NC(=O)c2ccc(Cl)cc2)s1` [ethyl 4-{5-[(4-chlorophenyl)carbonylamino](1,3,4-thiadiazol-2-ylthio)}-3-oxobutanoate] stands “elevate cellular expression of the ABCA-1 gene”; under `O=C(Nc1ncc(-c2ccccc2)s1)c1ccno1` [isoxazol-5-yl-N-(5-phenyl(1,3-thiazol-2-yl))carboxamide], “elevate cellular expression of the ABCA-1 gene”; under `COC(=O)c1ccc(C(=O)NC2=NCCS2)cc1` [methyl 4-(N-(1,3-thiazolin-2-yl)carbamoyl)benzoate], “elevate cellular expression of the ABCA-1 gene”.

On to `COC(=O)c1ccc(C(=O)NC2=NC(=O)CS2)cc1` [methyl 4-[N-(4-oxo-1,3-thiazolin-2-yl)carbamoyl]benzoate], for which the “cellular expression of the ABCA-1 gene” value is listed as “elevate cellular expression of the ABCA-1 gene”.

In the case of `COC(=O)c1ccc(/N=C(\NC2CCCCC2)N2CCN(Cc3ccc4c(c3)OCO4)CC2)c(O)c1` [methyl 4-{(1E)-1-aza-2-[4-(2H-benzo[d]1,3-dioxolen-5-ylmethyl)piperazinyl]-2-(cyclohexylamino)vinyl}-3-hydroxybenzoate], the “cellular expression of the ABCA-1 gene” value was “elevate cellular expression of the ABCA-1 gene”. In the case of `Nc1c(C(=O)Oc2ccccc2)oc2nc3c(cc12)CCC3` [phenyl 3-amino-5,6,7-trihydrocyclopenta[1,2-b]furano[4,5-e]pyridine-2-carboxylate], the “cellular expression of the ABCA-1 gene” value is given as “elevate cellular expression of the ABCA-1 gene”.

Turning to `O=C(NC1=NCCS1)c1ccccc1` [phenyl-N-(1,3-thiazolin-2-yl)carboxamide], the “cellular expression of the ABCA-1 gene” value was “elevate cellular expression of the ABCA-1 gene”. Take `O=C(NCCc1ccccn1)c1ccccc1` [phenyl-N-(2-(2-pyridyl)ethyl)carboxamide]: the “cellular expression of the ABCA-1 gene” value is given as “elevate cellular expression of the ABCA-1 gene”. The result for `O=C1CSC(NC(=O)c2ccccc2)=N1` [phenyl-N-(4-oxo(1,3-thiazolin-2-yl))carboxamide] reads “elevate cellular expression of the ABCA-1 gene”; that for `CCc1c(C(=O)NCC(C)C)cnn1-c1nc(-c2ccc(Br)cc2)cs1` [{1-[4-(4-bromophenyl)(1,3-thiazol-2-yl)]-5-ethylpyrazol-4-yl}-N-(2-methylpropyl)carboxamide], “elevate cellular expression of the ABCA-1 gene”. For `CCCCCCNC(=O)c1cnn(-c2nc(-c3ccc(Br)cc3)cs2)c1CC` [{1-[4-(4-bromophenyl)(1,3-thiazol-2-yl)]-5-ethylpyrazol-4-yl}-N-hexylcarboxamide], the “cellular expression of the ABCA-1 gene” value was “elevate cellular expression of the ABCA-1 gene”. Under `CCc1c(C(=O)N2CCN(C(=O)c3ccc4ccccc4c3)C(C)C2)cnn1-c1nc(-c2ccc(Cl)cc2)cs1` (centres unmarked) [{1-[4-(4-chloro-phenyl)-thiazol-2-yl]-5-ethyl-1H-pyrazol-4-yl}-[3-methyl-4-(naphthalene-2-carbonyl)-piperazin-1-yl]-methanone] stands “elevate cellular expression of the ABCA-1 gene”; under `Cc1c(C(=O)NCc2ccccc2)cnn1-c1nc(-c2ccc(Cl)cc2)cs1` [{1-[4-(4-chlorophenyl)(1,3-thiazol-2-yl)]-5-methylpyrazol-4-yl}-N-benzylcarboxamide], “elevate cellular expression of the ABCA-1 gene”; under `Cc1c(C(=O)NC2CC2)cnn1-c1nc(C(C)(C)C)cs1` [{1-[4-(tert-butyl)(1,3-thiazol-2-yl)]-5-methylpyrazol-4-yl}-N-cyclopropylcarboxamide], “elevate cellular expression of the ABCA-1 gene”.
